Experimental data as given in patent US9834559B2, “4-Amino-6-phenyl-5,6-dihydroimidazo[1,5-a]pyrazin-3(2H)-one derivatives as inhibitors of beta-secretase (BACE)” (Janssen Pharmaceutica NV, priority 2013, dated 2017).

How the values were obtained:
[1] = molecular target: recombinant BACE1 protein (Homo sapiens, UniProt P56817); assay: BACE1 biochemical FRET based assay; conditions: BACE1 0.04 μg/ml, 20 μM substrate, pH 5.0, 450 min; read-out: Biochemical FRET based assay pIC50 (converted)
Description: This assay is a Fluorescence Resonance Energy Transfer Assay (FRET) based assay. The substrate for this assay is an APP derived 13 amino acids peptide that contains the ‘Swedish’ Lys-Met/Asn-Leu mutation of the amyloid precursor protein (APP) beta-secretase cleavage site. This substrate also contains two fluorophores: (7-methoxycoumarin-4-yl) acetic acid (Mca) is a fluorescent donor with excitation wavelength at 320 nm and emission at 405 nm and 2,4-Dinitrophenyl (Dnp) is a proprietary quencher acceptor. […] Upon cleavage by BACE1, the fluorophore Mca is separated from the quenching group Dnp, restoring the full fluorescence yield of the donor. The increase in fluorescence is linearly related to the rate of proteolysis.
Briefly in a 384-well format recombinant BACE1 protein in a final concentration of 0.04 μg/ml is incubated for 450 minutes at room temperature with 20 μM substrate in incubation buffer (50 mM Citrate buffer pH 5.0, 0.05% PEG) in the presence of compound or DMSO. Next the amount of proteolysis is directly measured by fluorescence measurement (excitation at 320 nm and emission at 405 nm) at different incubation times (0, 30, 60, 90, 120 and 450 min). For every experiment a time curve (every 30 min between 0 min and 120 min) is used to determine the time where we find the lowest basal signal of the high control. The signal at this time (Tx) is used to subtract from the signal at 450 min. Results are expressed in RFU, as difference between T450 and Tx.
A best-fit curve is fitted by a minimum sum of squares method to the plot of % Controlmin versus compound concentration. From this an IC50 value (inhibitory concentration causing 50% inhibition of activity) can be obtained. • LC=Median of the low control values • =Low control: Reaction without enzyme • HC=Median of the High control values • =High Control: Reaction with enzyme • % Effect=100−[(sample−LC)/(HC−LC)*100] • % Control=(sample/HC)*100 • % Controlmin=(sample−LC)/(HC−LC)*100

recombinant BACE1 protein, sequence (P56817 46-501): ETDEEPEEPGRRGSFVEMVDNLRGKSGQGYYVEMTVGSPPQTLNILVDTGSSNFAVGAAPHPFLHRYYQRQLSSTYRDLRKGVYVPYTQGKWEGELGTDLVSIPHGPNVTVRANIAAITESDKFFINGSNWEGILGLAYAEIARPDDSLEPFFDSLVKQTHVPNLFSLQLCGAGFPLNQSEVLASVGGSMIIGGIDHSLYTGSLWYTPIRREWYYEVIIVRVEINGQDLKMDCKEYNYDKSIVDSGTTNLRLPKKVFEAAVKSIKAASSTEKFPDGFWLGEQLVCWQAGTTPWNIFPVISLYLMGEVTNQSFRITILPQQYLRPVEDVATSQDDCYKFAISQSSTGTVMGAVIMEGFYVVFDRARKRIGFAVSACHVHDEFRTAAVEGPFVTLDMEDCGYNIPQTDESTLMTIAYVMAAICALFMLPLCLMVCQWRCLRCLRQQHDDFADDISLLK

| IC50 [1] [nM] | melting point [°C] | SMILES |
| --- | --- | --- |
| 2.95 | – | Cn1cc2n(c1=O)C[C@@](C)(c1cc(NC(=O)c3ccc(C#N)cn3)ccc1F)N=C2N [Compound 1, N-{3-[(6R)-8-Amino-2,6-dimethyl-3-oxo-2,3,5,6-tetrahydroimidazo[1,5-a]pyrazin-6-yl]-4-fluorophenyl}-5-cyanopyridine-2-carboxamide] |
| 3.98 | 214.8 | Cn1cc2n(c1=O)C[C@@](C)(c1cc(NC(=O)c3ccc(Cl)cn3)ccc1F)N=C2N [Compound 4, N-{3-[(6R)-8-amino-2,6-dimethyl-3-oxo-5H-imidazo[1,5-a]pyrazin-6-yl]-4-fluoro-phenyl}-5-chloro-pyridine-2-carboxamide] |
| 9.55 | – | Cc1nc(C(=O)Nc2ccc(F)c([C@]3(C)Cn4c(cn(C)c4=O)C(N)=N3)c2)co1 [Compound 3, N-{3-[(6R)-8-Amino-2,6-dimethyl-3-oxo-2,3,5,6-tetrahydroimidazo[1,5-a]pyrazin-6-yl]-4-fluorophenyl}-2-methyl-1,3-oxazole-4-carboxamide] |
